Measurements published in the NIST ThermoML archive (doi:10.1016/j.fluid.2014.03.017).

Assay: molar heat capacity at constant pressure
Conditions: Liquid, Flow calorimetry

O [water]
molar heat capacity at constant pressure [J/K/mol]
Conditions | 100 kPa | 5000 kPa | 10000 kPa | 15000 kPa
294.2 K | – | – | 73.7 | –
294.24 K | 74.96 | 74.89 | – | –
294.27 K | – | – | – | 74.67
303.93 K | 75.43 | – | – | –
303.97 K | – | 75.34 | – | 76.01
303.98 K | – | – | 75.05 | –
313.68 K | 76.44 | – | 75.93 | –
313.69 K | – | 76.02 | – | 75.83
323.43 K | 76.28 | 75.84 | 75.47 | 74.96
333.33 K | 75.9 | 75.47 | 75.23 | 75.11
343.28 K | 76.31 | 75.95 | 75.29 | 75.07
353.25 K | – | 75.84 | 75.63 | 75.25
353.26 K | 76.04 | – | – | –

CCOC(F)(F)C(F)(F)C(F)(F)C(F)(F)F [1-ethoxy-1,1,2,2,3,3,4,4,4-nonafluorobutane]
Conditions | molar heat capacity at constant pressure [J/K/mol]
245.62 K, 100 kPa | 307.66
245.63 K, 10000 kPa | 295.52
245.64 K, 5000 kPa | 299.74
245.64 K, 15000 kPa | 286.54
254.42 K, 100 kPa | 317.7
254.44 K, 5000 kPa | 310.04
254.44 K, 10000 kPa | 305.81
254.44 K, 15000 kPa | 297.89
264.28 K, 100 kPa | 328.53
264.29 K, 10000 kPa | 319.55
264.3 K, 5000 kPa | 321.66
264.3 K, 15000 kPa | 307.4
274.14 K, 100 kPa | 337.24
274.16 K, 10000 kPa | 328.26
274.17 K, 5000 kPa | 332.49
274.17 K, 15000 kPa | 318.23
283.97 K, 100 kPa | 343.58
283.98 K, 10000 kPa | 340.67
283.99 K, 5000 kPa | 338.83
283.99 K, 15000 kPa | 333.02
293.9 K, 100 kPa | 365.5
293.92 K, 10000 kPa | 356.52
293.93 K, 5000 kPa | 360.75
293.93 K, 15000 kPa | 344.64
303.85 K, 100 kPa | 373.69
303.85 K, 10000 kPa | 364.71
303.86 K, 5000 kPa | 368.93
303.86 K, 15000 kPa | 356.52
313.79 K, 100 kPa | 389.8
313.9 K, 10000 kPa | 377.91
313.91 K, 5000 kPa | 385.04
313.91 K, 15000 kPa | 369.2
323.6 K, 100 kPa | 393.76
323.62 K, 10000 kPa | 384.78
323.63 K, 5000 kPa | 389
323.63 K, 15000 kPa | 384.51
333.28 K, 100 kPa | 407.23
333.29 K, 5000 kPa | 402.47
333.29 K, 10000 kPa | 398.25
333.29 K, 15000 kPa | 399.04
343.51 K, 100 kPa | 419.9
343.52 K, 10000 kPa | 410.92
343.53 K, 5000 kPa | 414.88
343.53 K, 15000 kPa | 407.49
353.61 K, 100 kPa | 431.79
353.62 K, 10000 kPa | 422.81
353.63 K, 5000 kPa | 426.77
353.63 K, 15000 kPa | 420.43

CCOC(F)(C(F)(F)C(F)(F)C(F)(F)F)C(F)(C(F)(F)F)C(F)(F)F (centres undefined) [2-trifluoromethyl-3-ethoxydodecafluorohexane]
molar heat capacity at constant pressure [J/K/mol]
Conditions | 100 kPa | 5000 kPa | 10000 kPa | 15000 kPa
248.45 K | 309.34 | 304.79 | 300.64 | 300.23
254.4 K | 329.22 | 325.49 | 320.94 | 319.28
264.24 K | 362.35 | 358.21 | 354.07 | 351.17
273.51 K | 393.82 | 390.92 | 387.19 | 380.98
283.77 K | 428.61 | 428.19 | 426.12 | 414.53
294.36 K | 470.02 | 463.8 | 461.73 | 456.35
304.12 K | 490.31 | 485.34 | 484.1 | 476.23
313.92 K | 531.72 | 528.41 | 526.75 | 516.81
323.65 K | 565.26 | 559.05 | 547.87 | 543.31
333.47 K | 587.21 | 578.1 | 571.47 | 565.68
343.39 K | 629.04 | 620.75 | 612.88 | 606.67
353.38 K | 669.2 | 656.78 | 653.88 | 649.74
